Test results from PMC7933286, “Structure-guided selection of puromycin N-acetyltransferase mutants with enhanced selection stringency for deriving mammalian cell lines expressing recombinant proteins” (Scientific Reports, 2021).

Biological target: T1, PAC (puromycin N-acetyltransferase) (Streptomyces alboniger, UniProt P13249)
T1 construct: native full-length pac amplified from pBABE-puro, N-terminal His6-tag (pET43a), expressed in E. coli BL21(DE3); IMAC and Superdex 75; tag removal not mentioned
T1 sequence (P13249 whole entry): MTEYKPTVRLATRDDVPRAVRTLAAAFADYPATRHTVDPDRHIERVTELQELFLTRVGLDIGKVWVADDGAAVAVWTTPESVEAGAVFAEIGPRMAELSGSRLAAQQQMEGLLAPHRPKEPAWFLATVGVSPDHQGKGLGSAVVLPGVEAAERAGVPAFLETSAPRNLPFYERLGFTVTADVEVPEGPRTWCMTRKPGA
Test: X-ray crystal structure
Format: binding

[1] = crystals grown with 2 mM AcCoA and 2 mM puromycin, pH 8.26, trapped reaction product

Question: Which X-ray crystal structure (crystals with 0.1 mM AcCoA, pH 9.0, acetyl donor site) does the source give for `CC(=O)SCCNC(=O)CCNC(=O)[C@H](O)C(C)(C)COP(=O)(O)OP(=O)(O)OC[C@H]1O[C@@H](n2cnc3c(N)ncnc32)[C@H](O)[C@@H]1OP(=O)(O)O` [acetyl-CoA] here?
Answer: Its X-ray crystal structure is “allowed the initial structure to be solved with AcCoA bound”.

Question: With `COc1ccc(C[C@H](NC(C)=O)C(=O)N[C@H]2[C@@H](O)[C@H](n3cnc4c(N(C)C)ncnc43)O[C@@H]2CO)cc1` [N-acetylated puromycin] as the compound, how does the X-ray crystal structure [1] read?
Answer: Its X-ray crystal structure is “The ligands modelled into this structure were CoA and N-acetylated puromycin”.

Question: Which X-ray crystal structure [1] does the source give for `CC(C)(COP(=O)(O)OP(=O)(O)OC[C@H]1O[C@@H](n2cnc3c(N)ncnc32)[C@H](O)[C@@H]1OP(=O)(O)O)[C@@H](O)C(=O)NCCC(=O)NCCS` [CoA] here?
Answer: Its X-ray crystal structure is “The ligands modelled into this structure were CoA and N-acetylated puromycin”.
